# Results reported in US10036068B1, “Diagnosis, prognosis, and treatment of myocardial infarction” (Vanderbilt University, priority 2012, dated 2018).
# Legend:
# Assay type in all cases: cell-based
# [1] = test system: human platelet; experiment: PGE2 effect on human platelet aggregation and dense granule release, light transmission aggregometry
# Description: (§1) This Examples describes a study conducted to characterize the regulation of thromboxane-dependent human platelet activation by PGE2, and particularly nanomolar concentrations of PGE2. Platelets were collected from individuals and studied by light transmission aggregometry. Next, it was observed how low nanomolar concentrations of PGE2 effect aggregation and dense granule release induced by sub-maximal concentrations of an agonist of the thromboxane receptor (U46,619), thrombin, collagen, and ADP.
# [2] = test system: human platelet; experiment: as above; details: agonist concentrations producing full activation of the platelets (max); even micromolar PGE2; FIG. 1
# [3] = target: T1, thromboxane receptor (Homo sapiens, UniProt P21731); experiment: U46,619 dose-response (aggregation, ATP release) in responder and non-responder samples; details: responders vs non-responders; FIG. 4
# T1 construct: Platelets were collected from individuals and studied by light transmission aggregometry; endogenous in cells; host or cells: human platelets from responder and non-responder individuals
# T1 sequence (P21731 1-343): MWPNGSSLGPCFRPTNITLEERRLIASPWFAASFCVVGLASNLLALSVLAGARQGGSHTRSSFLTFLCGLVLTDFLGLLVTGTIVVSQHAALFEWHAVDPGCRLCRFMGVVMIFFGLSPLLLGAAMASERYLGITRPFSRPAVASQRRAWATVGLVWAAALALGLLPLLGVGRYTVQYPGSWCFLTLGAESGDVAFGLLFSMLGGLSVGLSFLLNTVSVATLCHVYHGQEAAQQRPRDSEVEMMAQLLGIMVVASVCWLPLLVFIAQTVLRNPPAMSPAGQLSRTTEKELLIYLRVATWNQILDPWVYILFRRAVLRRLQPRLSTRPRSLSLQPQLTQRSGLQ
# Description: FIG. 4 includes plots of maximal aggregation (left) and ATP release (right) as a function of U46,610 concentration for both responder and non-responder individuals, and showing that there is little to no difference in U46,619 dose-response between the different phenotypic groups.
# as §1
# Samples from responders and non-responders were also exposed to different doses of U46,619.
Structure (SMILES),"individuals with strong inhibition of platelet activity in response to PGE2 ([1]; 76 individuals, FIG. 2)","individuals without significant inhibition of platelet aggregation in response to PGE2 (non-responders) ([1]; 76 individuals, FIG. 2)","partial responders to PGE2 ([1]; 76 individuals, FIG. 2)",effect on ADP-induced aggregation ([1]; FIG. 5),"effect on U46,610 aggregation ([1]; FIG. 5)",effect on collagen-induced aggregation ([1]; FIG. 5),individuals in whom PGE2 affected the timing but not the final magnitude of aggregation (partial responders) ([1]; nanomolar PGE2),individuals in whom PGE2 did not have detectable effects (nonresponders) ([1]; nanomolar PGE2),"individuals in whom PGE2 inhibits platelet aggregation (responders) ([1]; nanomolar PGE2, aggregation induced by U46,619 and PAR4-AP)","aggregation and dense granule release induced by sub-maximal U46,619 and thrombin ([1]; nanomolar PGE2, responder populations, FIG. 3)",effect on aggregation or granule release [2],"difference in U46,619 dose-response between phenotypic groups [3]"
"CCCCC[C@H](O)/C=C/[C@H]1[C@H](O)CC(=O)[C@@H]1C/C=C\CCCC(=O)O [PGE2, prostaglandin E2]",approximately 28%,55%,17%,no effect,did have an effect,no effect,approximately 31%,approximately 42%,approximately 26%,capable of preventing aggregation and dense granule release,did not affect either aggregation or granule release,
"CCCCC[C@H](O)/C=C/[C@@H]1[C@@H](C/C=C\CCCC(=O)O)[C@H]2CO[C@@H]1C2 [U46,619]",,,,,,,,,,,,No significant no difference
